Results reported in US8143403B2 (Bristol-Myers Squibb Company, priority 2008, dated 2012).

molecular target: T1, Human CGRP Receptor (Homo sapiens, UniProt O60894+Q16602); experiment: Radioligand binding assay, [125I]-CGRP displacement on SK-N-MC membranes; conditions: displacement of [125I]-CGRP (18 pM final), 2 h room temperature
T1 construct: Crude membranes were prepared from SK-N-MC cells expressing CGRP receptors; endogenous in cells; host or cells: SK-N-MC cells (crude membranes)
Method: Tissue Culture. SK-N-MC cells were grown at 37° C. in 5% CO2 as a monolayer in medium consisting of MEM with Earle's salts and L-glutamine (Invitrogen) supplemented with 10% fetal bovine serum (Invitrogen).
Membrane Preparation. Crude membranes were prepared from SK-N-MC cells expressing CGRP receptors. The cells were rinsed twice with phosphate-buffered saline (155 mM NaCl, 3.3 mM Na2HPO4, 1.1 mM KH2PO4, pH 7.4), and incubated for 5-10 min. at 4° C. in hypotonic lysis buffer consisting of 10 mM Tris (pH 7.4) and 5 mM EDTA. The cells were transferred from plates to polypropylene tubes (16×100 mm) and homogenized using a polytron. Homogenates were centrifuged at 32,000×g for 30 min. The pellets were resuspended in cold hypotonic lysis buffer with 0.1% mammalian protease inhibitor cocktail (Sigma) and assayed for protein concentration. The SK-N-MC homogenate was aliquoted and stored at −80° C. Radioligand Binding Assay. The compounds of invention were solubilized and carried through serial dilutions using 100% DMSO. Aliquots from the compound serial dilutions were further diluted 25 fold into assay buffer (50 mM Tris-Cl pH 7.5, 5 mM MgCl2, 0.005% Triton X-100) and transferred (volume 50 μl) into 96 well assay plates. [^125I]-CGRP (GE Healthcare or Perkin-Elmer) was diluted to 72 pM in assay buffer and a volume of 50 μl was added to each well. SK-N-MC membranes were thawed, diluted in assay buffer with fresh 0.1% mammalian protease inhibitor cocktail (Sigma), and re-homogenized. SK-N-MC homogenate (7 μg/well) was added in a volume of 100 μl. The assay plates were then incubated at room temperature for 2 h. Assays were stopped by addition of excess cold wash buffer (50 mM Tris-Cl pH 7.5, 0.1% BSA) immediately followed by filtration over glass fiber filters (Whatman GF/B) previously soaked in 0.5% PEI. Non-specific binding was defined with 1 μM beta-CGRP (Bachem). Protein bound radioactivity was determined using a gamma or scintillation counter. The resulting data was analyzed using a four parameter competitive binding equation (XLfit v2.0) and the IC50 was defined as the concentration of a compound of invention required to displace 50% of radioligand binding. Final assay concentration of [^125I]-CGRP was 18 pM. […] All compounds of invention were evaluated in at least two separate experiments.

T1 sequence (Q16602 23-461): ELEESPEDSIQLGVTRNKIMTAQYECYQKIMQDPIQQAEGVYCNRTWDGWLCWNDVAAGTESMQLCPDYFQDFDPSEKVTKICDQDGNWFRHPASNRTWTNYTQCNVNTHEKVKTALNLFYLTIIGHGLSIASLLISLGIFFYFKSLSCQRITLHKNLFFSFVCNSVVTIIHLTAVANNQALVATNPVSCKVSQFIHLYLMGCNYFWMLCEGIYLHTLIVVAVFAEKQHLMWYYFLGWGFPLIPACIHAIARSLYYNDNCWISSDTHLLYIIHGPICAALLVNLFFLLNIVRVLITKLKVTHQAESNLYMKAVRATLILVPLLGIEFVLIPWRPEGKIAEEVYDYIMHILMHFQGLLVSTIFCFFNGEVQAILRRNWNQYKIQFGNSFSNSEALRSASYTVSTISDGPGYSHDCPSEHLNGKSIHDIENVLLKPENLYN
T1 sequence (O60894 27-148): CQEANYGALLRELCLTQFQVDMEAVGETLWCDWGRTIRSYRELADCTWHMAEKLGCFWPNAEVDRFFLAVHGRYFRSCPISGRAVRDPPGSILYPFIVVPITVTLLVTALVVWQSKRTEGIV

| IC50 [nM] | Compound |
| --- | --- |
| 2.86 | O=C1CCC(c2cccc(F)c2F)CCC1OC(=O)N1CCC(n2c(=O)[nH]c3ncccc32)CC1 (stereo not drawn) [Example 1, 5-(2,3-difluorophenyl)-2-oxocycloheptyl 4-(2-oxo-2,3-dihydro-1H-imidazo[4,5-b]pyridin-1-yl)piperidine-1-carboxylate] |
| 1.25 | O=C(O[C@@H]1CC[C@@H](c2cccc(F)c2F)Cc2cccnc21)N1CCC(N2CCc3ccccc3NC2=O)CC1 (relative stereo) [Example 3, (6,9-anti)-6-(2,3-difluorophenyl)-6,7,8,9-tetrahydro-5H-cyclohepta[b]pyridin-9-yl 4-(2-oxo-4,5-dihydro-1H-benzo[d][1,3]diazepin-3(2H)-yl)piperidine-1-carboxylate] |
| 1.6 | O=C(N[C@@H]1CC[C@@H](c2cccc(F)c2F)Cc2cccnc21)N1CCC(n2c(=O)[nH]c3ncccc32)CC1 (single isomer, unassigned) [Example 8] |
| 0.98 | CN(C)c1cnc2c(c1)C[C@H](c1cccc(F)c1F)CC[C@H]2OC(=O)N1CCC(n2c(=O)[nH]c3ncccc32)CC1 [Example 15, (6R,9R)-6-(2,3-difluorophenyl)-3-(dimethylamino)-6,7,8,9-tetrahydro-5H-cyclohepta[b]pyridin-9-yl 4-(2-oxo-2,3-dihydro-1H-imidazo[4,5-b]pyridin-1-yl)piperidine-1-carboxylate] |
| 0.44 | N#Cc1ccc2c(n1)[C@H](OC(=O)N1CCC(n3c(=O)[nH]c4ncccc43)CC1)CC[C@@H](c1cccc(F)c1F)C2 (relative stereo) [Example 4, (6,9-trans)-2-cyano-6-(2,3-difluorophenyl)-6,7,8,9-tetrahydro-5H-cyclohepta[b]pyridin-9-yl 4-(2-oxo-2,3-dihydro-1H-imidazo[4,5-b]pyridin-1-yl)piperidine-1-carboxylate] |
| 7.41 | O=C(O[C@@H]1CC[C@@H](c2ccc(F)c(F)c2)Cc2cccnc21)N1CCC(n2c(=O)[nH]c3ncccc32)CC1 (relative stereo) [Example 12, (6,9-Trans)-6-(3,4-Difluorophenyl)-6,7,8,9-tetrahydro-5H-cyclohepta[b]pyridin-9-yl 4-(2-oxo-2,3-dihydro-1H-imidazo[4,5-b]pyridin-1-yl)piperidine-1-carboxylate] |
| 0.76 | O=C(O[C@@H]1CC[C@@H](c2cccc(F)c2F)Cc2ccc(Cl)nc21)N1CCC(n2c(=O)[nH]c3ncccc32)CC1 [Example 19, (6R,9R)-2-Chloro-6-(2,3-difluorophenyl)-6,7,8,9-tetrahydro-5H-cyclohepta[b]pyridin-9-yl 4-(2-oxo-2,3-dihydro-1H-imidazo[4,5-b]pyridin-1-yl)piperidine-1-carboxylate] |
| 0.78 | CN(C)c1ccc2c(n1)[C@H](OC(=O)N1CCC(n3c(=O)[nH]c4ncccc43)CC1)CC[C@@H](c1cccc(F)c1F)C2 [Example 18, (6R,9R)-6-(2,3-difluorophenyl)-2-(dimethylamino)-6,7,8,9-tetrahydro-5H-cyclohepta[b]pyridin-9-yl 4-(2-oxo-2,3-dihydro-1H-imidazo[4,5-b]pyridin-1-yl)piperidine-1-carboxylate] |
| 0.89 | O=C(C[C@@H]1CC[C@@H](c2cccc(F)c2F)Cc2cccnc21)N1CCC(n2c(=O)[nH]c3ncccc32)CC1 (single isomer, unassigned) [Example 6] |

| Compound | IC50 [nM] |
| --- | --- |
| (6,9-Trans)-6-(2,3-difluorophenyl)-6,7,8,9-tetrahydro-5H-cyclohepta[b]pyridin-9-yl 2-oxo-1,2-dihydrospiro[benzo[d][1,3]oxazine-4,4′-piperidine]-1′-carboxylate [Example 13] | 1.55 |
| O=C(O[C@@H]1CC[C@@H](c2cccc(F)c2F)Cc2cccnc21)N1CCC(n2c(=O)[nH]c3ncccc32)CC1 [Example 21] | 0.12 |
| O=C(O[C@@H]1CC[C@@H](c2cccc(F)c2F)Cc2cccnc21)N1CCC(n2c(=O)[nH]c3ncccc32)CC1 (relative stereo) [Example 2] | 0.23 |
